# From US20240262826A1, “WILD TYPE KIT INHIBITORS” (Blueprint Medicines Corporation, priority 2022, published 2024)
# Molecular target: wild type c-kit (Homo sapiens (Human), UniProt P10721)
# Test: PathScan phospho c-kit (Tyr719) sandwich ELISA in SCF-stimulated M-07e cells (pKIT assay)
# Type: cell-based
# Conditions: ELISA assay (values not marked *)
# Text: The ability of compounds of the disclosure (described herein as test compounds) to inhibit autophosphorylation of wild type c-kit was measures using either a PathScan phospho c-kit (Tyr719) sandwich ELISA (CST #7298) or a Phospho c-Kit (Tyr721) Assay Whole Cell Lysate Kit (MSD: 515DPD/catalog number K15119D-2).
# For the PathScan phospho c-kit (Tyr719) sandwich ELISA: M-07e cells were resuspended at 2×10^6 cells/mL in phenol red free, serum-free, GM-CSF-free Iscove's Modified Dulbecco's Medium (IMDM) media with 1% Penicillin-Streptomycin. The cells were then dispensed into the wells of a U-bottom, 96-well plate at 50 uL per well using a multichannel pipet. The plate was allowed to incubate at 37° C. in a humidified tissue culture incubator for 4 hours.
# After 4 hours of incubation, each well was dosed with 6.25 uL of test compound at a final DMSO concentration of 0.25% for 60 min at 37° C. to generate an 8-point dose concentration series of test compounds in duplicate. Cells were then incubated for 1 hour at 37° C. in a humidified tissue culture incubator. Next, human SCF at 500 ng/mL was added to the appropriate wells at 6.25 uL/well and the plate was shaken at 450 rpm at room temperature for 10 minutes. AlphaLISA 5× Lysis Buffer supplemented with 1× protease and phosphatase inhibitor was then added at 16 uL/well. The plate was sealed with an adherent cover and shaken at 4° C. at 600 rpm for 30 minutes. After this period of lysis, the plate was stored at −80° C.
# When the 96-well plate containing M07e lysates was ready to be processed, the plate was brought to room temperature and 40 μl from each well was transferred to the wells of a PathScan Phospho-c-Kit (Tyr719) Sandwich ELISA plate (CST, Catalog #7298). The ELISA plate was sealed with an adherent cover and incubated for 2 hours at 37° C. Next, the wells were washed 4 times with the provided 1× Wash Buffer, and 100 uL/well of reconstituted Detection Antibody was added to each well, the plate sealed with an adherent cover, and incubated at 37° C. for 1 hour. The wash procedure was repeated and 100 uL/well of reconstituted HRP-Linked secondary antibody was added. The plate was sealed with an adherent cover and incubated at 37° C. for 1 hour. The wash procedure was repeated and 100 uL/well of TMB Substrate was added. The plate was incubated for 10 minutes at room temperature or until the positive reaction elicited a blue color in the appropriate wells. 100 uL/well of STOP solution was added and shaken gently for a few seconds a microplate reader or conventional spectrophotometer e.g., a Perkin Elmer Envision multimode plate reader, part #2105-0010.
# An IC50 was calculated using a 4-parameter logistic nonlinear regression.
# Sequence of wild type c-kit (P10721 26-976): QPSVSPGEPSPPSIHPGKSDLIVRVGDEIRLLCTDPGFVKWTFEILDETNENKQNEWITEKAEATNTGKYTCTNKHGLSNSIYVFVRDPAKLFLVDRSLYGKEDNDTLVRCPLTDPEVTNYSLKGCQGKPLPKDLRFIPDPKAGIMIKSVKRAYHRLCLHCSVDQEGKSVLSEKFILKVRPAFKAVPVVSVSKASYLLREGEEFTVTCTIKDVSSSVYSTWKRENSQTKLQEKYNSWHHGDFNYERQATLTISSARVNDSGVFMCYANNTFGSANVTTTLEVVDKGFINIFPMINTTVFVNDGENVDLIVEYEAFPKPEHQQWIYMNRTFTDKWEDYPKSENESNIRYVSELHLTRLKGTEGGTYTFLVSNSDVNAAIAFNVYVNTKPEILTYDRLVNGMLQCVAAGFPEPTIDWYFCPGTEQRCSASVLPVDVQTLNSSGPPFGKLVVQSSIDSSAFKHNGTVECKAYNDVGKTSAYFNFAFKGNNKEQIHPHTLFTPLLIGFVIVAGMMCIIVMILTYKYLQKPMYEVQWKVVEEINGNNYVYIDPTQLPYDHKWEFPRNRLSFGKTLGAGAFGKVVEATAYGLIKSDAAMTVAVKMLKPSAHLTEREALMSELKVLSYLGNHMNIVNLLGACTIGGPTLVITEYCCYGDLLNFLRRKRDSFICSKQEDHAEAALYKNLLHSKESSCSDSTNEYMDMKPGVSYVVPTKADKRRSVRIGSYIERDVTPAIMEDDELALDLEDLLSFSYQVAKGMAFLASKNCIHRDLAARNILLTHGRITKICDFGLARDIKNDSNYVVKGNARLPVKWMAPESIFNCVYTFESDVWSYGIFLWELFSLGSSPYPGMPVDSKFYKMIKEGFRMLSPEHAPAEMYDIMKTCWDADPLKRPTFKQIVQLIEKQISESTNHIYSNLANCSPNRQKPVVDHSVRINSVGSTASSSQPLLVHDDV
row,SMILES,IC50 [nM]
1,"Cc1ccc(-c2nnn(C3CN(S(=O)(=O)CCOCC(F)F)C3)n2)cc1NC(=O)c1cnn2ccccc12 [Example 176, N-(5-(2-(1-((2-(2,2-difluoroethoxy)ethyl)sulfonyl)azetidin-3-yl)-2H-tetrazol-5-yl)-2-methylphenyl)pyrazolo[1,5-a]pyridine-3-carboxamide]",47.9
2,"Cc1ccc(-c2nnn(C3CC(F)(F)C3)n2)cc1NC(=O)c1cnn2ccc(N3CC(CO)C3)cc12 [Example 103, N-(5-(2-(3,3-difluorocyclobutyl)-2H-tetrazol-5-yl)-2-methylphenyl)-5-(3-(hydroxymethyl)azetidin-1-yl)pyrazolo[1,5-a]pyridine-3-carboxamide]",2.4
3,"COCCNc1ccn2ncc(C(=O)Nc3cc(-c4nnn(C[C@@H]5CC5(F)F)n4)ccc3C)c2c1 (single isomer, unassigned) [Example 123, (S)-N-(5-(2-((2,2-difluorocyclopropyl)methyl)-2H-tetrazol-5-yl)-2-methylphenyl)-5-((2-methoxyethyl)amino)pyrazolo[1,5-a]pyridine-3-carboxamide or (R)-N-(5-(2-((2,2-difluorocyclopropyl)methyl)-2H-tetrazol-5-yl)-2-methylphenyl)-5-((2-methoxyethyl)amino)pyrazolo[1,5-a]pyridine-3-carboxamide]",3.4
4,"[2H]C([2H])([2H])N1CCN(c2ccn3ncc(C(=O)Nc4cc(-c5nnn(C6CN(C(=O)OC)C6)n5)ccc4C)c3c2)CC1 [Example 72, methyl 3-(5-(4-methyl-3-(5-(4-(methyl-d3)piperazin-1-yl)pyrazolo[1,5-a]pyridine-3-carboxamido)phenyl)-2H-tetrazol-2-yl)azetidine-1-carboxylate]",38.4
5,"COC(=O)N1CC(n2nnc(-c3ccc(C)c(NC(=O)c4cnn5ccc(N6CCO[C@H](CO)C6)cc45)c3)n2)C1 [Example 68, methyl (S)-3-(5-(3-(5-(2-(hydroxymethyl)morpholino)pyrazolo[1,5-a]pyridine-3-carboxamido)-4-methylphenyl)-2H-tetrazol-2-yl)azetidine-1-carboxylate]",61.3
6,"Cc1ccc(-c2cnn(C3CC3)n2)cc1NC(=O)c1cnn2ccccc12 [Example 29, N-(5-(2-cyclopropyl-2H-1,2,3-triazol-4-yl)-2-methylphenyl)pyrazolo[1,5-a]pyridine-3-carboxamide]",11.1
7,"Cc1ccc(-c2nnn(C)n2)cc1NC(=O)c1cnn2ccccc12 [Example 2, N-(2-methyl-5-(2-methyl-2H-tetrazol-5-yl)phenyl)pyrazolo[1,5-a]pyridine-3-carboxamide]",4.8
8,"COC(=O)N1CC(n2nnc(-c3ccc(C)c(NC(=O)c4cnn5ccc(NC[C@H](C)OC)cc45)c3)n2)C1 [Example 134, methyl (S)-3-(5-(3-(5-((2-methoxypropyl)amino)pyrazolo[1,5-a]pyridine-3-carboxamido)-4-methylphenyl)-2H-tetrazol-2-yl)azetidine-1-carboxylate]",32.4
9,"COC(=O)N1CC(n2nnc(-c3ccc(C)c(NC(=O)c4cnn5ccc(N6CCN(C7COC7)CC6)cc45)c3)n2)C1 [Example 74, methyl 3-(5-(4-methyl-3-(5-(4-(oxetan-3-yl)piperazin-1-yl)pyrazolo[1,5-a]pyridine-3-carboxamido)phenyl)-2H-tetrazol-2-yl)azetidine-1-carboxylate]",63.9
10,"Cc1ccc(-c2nnn(CC3CC3)n2)cc1NC(=O)c1cnn2ccccc12 [Example 7, N-(5-(2-(cyclopropylmethyl)-2H-tetrazol-5-yl)-2-methylphenyl)pyrazolo[1,5-a]pyridine-3-carboxamide]",13.6
11,"COC(=O)N1CC(n2nnc(-c3ccc(C)c(NC(=O)c4cnn5ccc(N[C@H]6CCOC6)cc45)c3)n2)C1 [Example 136, methyl (S)-3-(5-(4-methyl-3-(5-((tetrahydrofuran-3-yl)amino)pyrazolo[1,5-a]pyridine-3-carboxamido)phenyl)-2H-tetrazol-2-yl)azetidine-1-carboxylate]",76.2
12,"O=C(Nc1cc(-c2nnn(C3CC(F)(F)C3)n2)c(C2CC2)cc1Cl)c1cnn2ccc(N3CCOCC3)cc12 [Example 117, N-(2-chloro-4-cyclopropyl-5-(2-(3,3-difluorocyclobutyl)-2H-tetrazol-5-yl)phenyl)-5-morpholinopyrazolo[1,5-a]pyridine-3-carboxamide]",52.7
13,"COC(=O)N1CC(n2nnc(-c3ccc(C)c(NC(=O)c4cnn5ccc(N6CCC[C@@H](O)C6)cc45)c3)n2)C1 [Example 71, methyl (R)-3-(5-(3-(5-(3-hydroxypiperidin-1-yl)pyrazolo[1,5-a]pyridine-3-carboxamido)-4-methylphenyl)-2H-tetrazol-2-yl)azetidine-1-carboxylate]",41.6
14,"COCCNc1ccn2ncc(C(=O)Nc3cc(-c4nnn(C5CC5)n4)ccc3C)c2c1 [Example 88, N-(5-(2-cyclopropyl-2H-tetrazol-5-yl)-2-methylphenyl)-5-((2-methoxyethyl)amino)pyrazolo[1,5-a]pyridine-3-carboxamide]",3.2
15,"CCNc1ccn2ncc(C(=O)Nc3cc(-c4nnn(C5CN(C(=O)OC)C5)n4)ccc3C)c2c1 [Example 127, methyl 3-(5-(3-(5-(ethylamino)pyrazolo[1,5-a]pyridine-3-carboxamido)-4-methylphenyl)-2H-tetrazol-2-yl)azetidine-1-carboxylate]",30.2

# Next, values leading:
row,IC50 [nM],SMILES
1,0.6,"O=C(Nc1cc(-c2nnn(C3CC3)n2)ccc1Cl)c1cnn2ccc(-c3cnn(CC4(O)CCOCC4)c3)cc12 [Example 236, N-(2-chloro-5-(2-cyclopropyl-2H-tetrazol-5-yl)phenyl)-5-(1-((4-hydroxytetrahydro-2H-pyran-4-yl)methyl)-1H-pyrazol-4-yl)pyrazolo[1,5-a]pyridine-3-carboxamide]"
2,8.1,"CC(C)(O)Cn1cc(-c2ccn3ncc(C(=O)Nc4cc(-n5nnc(C6CC6)n5)ccc4F)c3c2)cn1 [Example 217, N-(5-(5-cyclopropyl-2H-tetrazol-2-yl)-2-fluorophenyl)-5-(1-(2-hydroxy-2-methylpropyl)-1H-pyrazol-4-yl)pyrazolo[1,5-a]pyridine-3-carboxamide]"
3,22.8,Cc1ccc(-n2nnc(C3CN(S(C)(=O)=O)C3)n2)cc1NC(=O)c1cnn2ccccc12 [Example 190]
4,0.4,"CCn1nnc(-c2ccc(Cl)c(NC(=O)c3cnn4ccc(-c5c(C)nn(C[C@H](C)O)c5C)cc34)c2)n1 [Example 253, (S)-N-(2-chloro-5-(2-ethyl-2H-tetrazol-5-yl)phenyl)-5-(1-(2-hydroxypropyl)-3,5-dimethyl-1H-pyrazol-4-yl)pyrazolo[1,5-a]pyridine-3-carboxamide]"
5,5.2,"Cn1nnc(-c2ccc(Cl)c(NC(=O)c3cnn4ccc(-c5cnn(CCO)c5)cc34)c2)n1 [Example 218, N-(2-chloro-5-(2-methyl-2H-tetrazol-5-yl)phenyl)-5-(1-(2-hydroxyethyl)-1H-pyrazol-4-yl)pyrazolo[1,5-a]pyridine-3-carboxamide]"
6,0.5,"Cc1cc(F)c(-c2nnn(C3CC3)n2)cc1NC(=O)c1cnn2cc(F)c(-c3cn(CC(C)(C)O)nc3C)cc12 [Example 247, N-(5-(2-cyclopropyl-2H-tetrazol-5-yl)-4-fluoro-2-methylphenyl)-6-fluoro-5-(1-(2-hydroxy-2-methylpropyl)-3-methyl-1H-pyrazol-4-yl)pyrazolo[1,5-a]pyridine-3-carboxamide]"
7,29.6,"COC(=O)N1CC(n2nnc(-c3ccc(C)c(NC(=O)c4cnn5ccc(OCCO)cc45)c3)n2)C1 [Example 199, methyl 3-(5-(3-(5-(2-hydroxyethoxy)pyrazolo[1,5-a]pyridine-3-carboxamido)-4-methylphenyl)-2H-tetrazol-2-yl)azetidine-1-carboxylate]"
8,0.5,"Cc1c(-c2ccn3ncc(C(=O)Nc4cc(-c5nnn(C6CC6)n5)c(F)cc4Cl)c3c2)cnn1C[C@H](C)O [Example 264, (S)-N-(2-chloro-5-(2-cyclopropyl-2H-tetrazol-5-yl)-4-fluorophenyl)-5-(1-(2-hydroxypropyl)-5-methyl-1H-pyrazol-4-yl)pyrazolo[1,5-a]pyridine-3-carboxamide]"
9,1,"COCCOC[C@@H](O)Cn1cc(-c2ccn3ncc(C(=O)Nc4cc(-c5nnn(C6CC6)n5)c(F)cc4Cl)c3c2)c(C)n1 [Example 285, (S)—N-(2-chloro-5-(2-cyclopropyl-2H-tetrazol-5-yl)-4-fluorophenyl)-5-(1-(2-hydroxy-3-(2-methoxyethoxy)propyl)-3-methyl-1H-pyrazol-4-yl)pyrazolo[1,5-a]pyridine-3-carboxamide]"
